molecular target: T1, human P2Y12 receptor (Homo sapiens, UniProt Q9H244); assay: P2Y12 receptor binding assay (displacement of tritium-labeled 2-methyl-S-ADP on CHO cells); settings: CHO cells with recombinant expression of the human P2Y12 receptor, 2 hours at RT, Example compounds table
T1 construct: expressed in transfected cells; host or cells: Chinese Hamster Ovary (CHO) cells
Protocol: P2Y12 Receptor Binding Assay
Chinese Hamster Ovary (CHO) cells with recombinant expression of the human P2Y12 receptor were cultured in 24 well cell-culture plates. Cells were washed three times with binding buffer (50 mM Tris pH 7.4, 100 mM NaCl, 1 mM EDTA, 0.5% BSA). The cells were then incubated with 0.5 ml per well binding buffer containing tritium-labeled 2-methyl-thio-adenosine 5′-diphosphate (2-methyl-S-ADP) (between 100'000 and 300'000 dpm per well) and various concentrations of test compounds. After incubation at RT for 2 hours, cells were washed three times with binding buffer. Then, cells were solubilized by addition of 0.5 ml solubilization buffer (SDS, NaOH, EDTA). The content of each well was then transferred into beta-counter vials and 2.0 ml of Ultima Gold Scintillation liquid was added.

T1 sequence (Q9H244 whole entry): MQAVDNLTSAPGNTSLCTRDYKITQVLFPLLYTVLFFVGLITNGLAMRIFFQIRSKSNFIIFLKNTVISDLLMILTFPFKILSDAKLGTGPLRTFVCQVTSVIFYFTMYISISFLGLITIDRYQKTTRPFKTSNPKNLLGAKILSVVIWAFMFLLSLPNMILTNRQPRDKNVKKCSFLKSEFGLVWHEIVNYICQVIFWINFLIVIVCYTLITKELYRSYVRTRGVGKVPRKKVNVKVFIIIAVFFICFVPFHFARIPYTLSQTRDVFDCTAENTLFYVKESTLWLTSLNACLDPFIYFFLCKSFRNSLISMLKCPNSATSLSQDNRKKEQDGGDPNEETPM

Structure (SMILES)	IC50 [nM]
CCCCOC(=O)N1CCN(C(=O)[C@H](CCC(=O)O)NC(=O)c2cc([C@H]3C[C@@H]3CO)nc(-c3ccccc3)n2)CC1 [Example 4, 4-((S)-4-carboxy-2-{[6-((1S,2S)-2-hydroxymethyl-cyclopropyl)-2-phenyl-pyrimidine-4-carbonyl]-amino}-butyryl)-piperazine-1-carboxylic acid butyl ester]	4
CCCCOC(=O)N1CCN(C(=O)[C@H](CCC(=O)O)NC(=O)c2cc([C@@H]3C[C@@H]3COC)nc(-c3ccccc3)n2)CC1 (mixture of isomers) [Example 6, 4-((S)-4-carboxy-2-{[6-(cis-2-methoxymethyl-cyclopropyl)-2-phenyl-pyrimidine-4-carbonyl]-amino}-butyryl)-piperazine-1-carboxylic acid butyl ester]	9
CCCCOC(=O)N1CCN(C(=O)[C@H](CCC(=O)O)NC(=O)c2cc(C3CC3)nc(-c3ccccc3)n2)CC1 [Example 1, 4-{(S)-4-carboxy-2-[(6-cyclopropyl-2-phenyl-pyrimidine-4-carbonyl)-amino]-butyryl}-piperazine-1-carboxylic acid butyl ester]	6
CCCCOC(=O)N1CCN(C(=O)[C@H](CCC(=O)O)NC(=O)c2cc([C@H]3C[C@@H]3COC)nc(-c3ccccc3)n2)CC1 [Example 3, 4-((S)-4-carboxy-2-{[6-((1S,2S)-2-methoxymethyl-cyclopropyl)-2-phenyl-pyrimidine-4-carbonyl]-amino}-butyryl)-piperazine-1-carboxylic acid butyl ester]	5
CCCCOC(=O)N1CCN(C(=O)[C@H](CCC(=O)O)NC(=O)c2cc([C@@H]3C[C@H]3COC)nc(-c3ccccc3)n2)CC1 (mixture of isomers) [Example 2, 4-((S)-4-carboxy-2-{[6-(trans-2-methoxymethyl-cyclopropyl)-2-phenyl-pyrimidine-4-carbonyl]-amino}-butyryl)-piperazine-1-carboxylic acid butyl ester]	3
CCCCOC(=O)N1CCN(C(=O)[C@H](CCC(=O)O)NC(=O)c2cc([C@H]3C[C@@H]3COC)nc(-c3ccc(F)cc3)n2)CC1 [Example 5, 4-((S)-4-carboxy-2-{[2-(4-fluoro-phenyl)-6-((1S,2S)-2-methoxymethyl-cyclopropyl)-pyrimidine-4-carbonyl]-amino}-butyryl)-piperazine-1-carboxylic acid butyl ester]	2

same assay, conditions: CHO cells with recombinant expression of the human P2Y12 receptor, 2 hours at RT, comparison with reference compounds of WO 2006/114774

Structure (SMILES)	IC50 [nM]
CCOC(=O)N1CCN(C(=O)[C@H](CCC(=O)O)NC(=O)c2cc(C3CC3)nc(-c3ccccc3)n2)CC1 [Example 90 of WO 2006/114774, reference compound]	43
CCOC(=O)N1CCN(C(=O)[C@H](CCC(=O)O)NC(=O)c2cc(C3CC3CO)nc(-c3ccccc3)n2)CC1 (some centres unmarked) [Example 500 of WO 2006/114774, reference compound]	23

Reference: US8466156B2, “2-phenyl-4-cyclopropyl-pyrimidine derivatives” (Actelion Pharmaceuticals Ltd., priority 2008, dated 2013)
